Data: patent US4001218A, “Penicillins” (Bayer Aktiengesellschaft, priority 1972, dated 1977)

Columns and labels:
[1] = tested on: E. coli C 165; assay: MIC, test tube series dilution test, E. coli C 165; assay type: cell-based; settings: 24 hours, 37°C
[2] = tested on: Psdm. aerug. Walter; assay: MIC, test tube series dilution test, Psdm. aerug. Walter; assay type: cell-based, Pseudomonas aeruginosa; settings: Psdm. aerug. Walter; 24 hours, 37°C
[3] = tested on: Klebsiella K 10; assay: MIC, test tube series dilution test, Klebsiella K 10; assay type: cell-based; settings: 24 hours, 37°C
[4] = tested on: Klebsiella 63; assay: MIC, test tube series dilution test, Klebsiella 63; assay type: cell-based; settings: Klebsiella 63; 24 hours, 37°C
[5] = tested on: Proteus morg. 932; assay: MIC, test tube series dilution test, Proteus morg. 932; assay type: cell-based; settings: 24 hours, 37°C
[6] = tested on: Proteus vulg. 1017; assay type: cell-based, Proteus vulgaris; settings: Proteus 1017; 24 hours, 37°C
[7] = tested on: E. coli A 261; assay: MIC, test tube series dilution test, E. coli A 261; assay type: cell-based; settings: 24 hours, 37°C
[8] = tested on: Staph. aureus 133; assay type: cell-based, Staphylococcus aureus; settings: Staph. aureus 133; 24 hours, 37°C
[9] = tested on: Staph. aureus 1756; assay: MIC, test tube series dilution test, Staph. aureus 1756; assay type: cell-based, Staphylococcus aureus; settings: Staph. aureus 1756; 24 hours, 37°C
[10] = tested on: E. coli 183/58; assay: MIC, test tube series dilution test, E. coli 183/58; assay type: cell-based; settings: 24 hours, 37°C
[11] = tested on: Enterococcus 9790; assay: MIC, test tube series dilution test, Enterococcus 9790; assay type: cell-based; settings: 24 hours, 37°C
[12] = tested on: E. coli 14; assay type: cell-based; settings: E. coli 14; 24 hours, 37°C
[13] = tested on: Psdm. aerug. F 41; assay: MIC, test tube series dilution test, Psdm. aerug. F 41; assay type: cell-based, Pseudomonas aeruginosa; settings: Psdm. aerug. F 41; 24 hours, 37°C

| Structure (SMILES) | MIC [1] | MIC [2] | MIC [3] | MIC [4] | MIC [5] | MIC [6] | MIC [7] | MIC [8] | MIC [9] | MIC [10] | MIC [11] | MIC [12] | MIC [13] |
| --- | --- | --- | --- | --- | --- | --- | --- | --- | --- | --- | --- | --- | --- |
| CC1(C)S[C@@H]2[C@H](NC(=O)[C@H](NC(=O)c3ccc(NC(N)=O)cc3)c3ccccc3)C(=O)N2[C@H]1C(=O)O [Example 30, sodium D(-)-α-(4-carbamoylaminobenzoylamino)-benzylpenicillin] | 32 U/ml | > 256 U/ml | > 256 U/ml | 256 U/ml | > 256 U/ml | > 256 U/ml | > 256 U/ml | < 1 U/ml | 64 U/ml | 256 U/ml | 8 U/ml | ~ 32 U/ml | 128 U/ml |
| CC1(C)S[C@@H]2[C@H](NC(=O)[C@H](NC(=O)c3ccc(NC(=O)C4CC=CCC4)cc3)c3ccccc3)C(=O)N2[C@H]1C(=O)O (single isomer, unassigned) [Example 12, sodium D(-)-α-[4-(3-cyclohexene-1-carbonylamino-benzoylamino)]-benzylpenicillin] | 8 U/ml | 32 U/ml | 32 U/ml | 32 U/ml | > 256 U/ml | 16 U/ml | > 256 U/ml | < 1 U/ml | 16 U/ml | 16 U/ml | ~ 8 U/ml | ~ 4 U/ml | 32 U/ml |
| CC1(C)S[C@@H]2[C@H](NC(=O)[C@H](NC(=O)c3ccc(NC(=O)C4=CCCCC4)cc3)c3ccccc3)C(=O)N2[C@H]1C(=O)O [Example 11, sodium D(-)-α-[4-(1-cyclohexene-1-carbonylamino-benzoylamino)]-benzylpenicillin] | 8 U/ml | 32 U/ml | 64 U/ml | 32 U/ml | 128 U/ml | 64 U/ml | > 256 U/ml | < 1 U/ml | 128 U/ml | 8 U/ml | 16 U/ml | 4 U/ml | 32 U/ml |
| CC1(C)S[C@@H]2[C@H](NC(=O)[C@H](NC(=O)c3ccc(NC(=O)c4ccc(N=[N+]=[N-])cc4)cc3)c3ccccc3)C(=O)N2[C@H]1C(=O)O [Example 26] | 4 U/ml | 16 U/ml | 16 U/ml | 4 U/ml | 8 U/ml | 16 U/ml | 256 U/ml | < 1 U/ml | 64 U/ml | < 1 U/ml | 16 U/ml | < 1 U/ml | 16 U/ml |
| CC1(C)S[C@@H]2[C@H](NC(=O)[C@H](NC(=O)c3ccc(NC(=O)c4ccc(F)cc4)cc3)c3ccccc3)C(=O)N2[C@H]1C(=O)O [Example 17] | ~ 8 U/ml | 32 U/ml | 64 U/ml | 32 U/ml | 128 U/ml | ~ 32 U/ml | > 256 U/ml | < 1 U/ml | 32 U/ml | 8 U/ml | 16 U/ml | 4 U/ml | 32 U/ml |
| CC1(C)S[C@@H]2[C@H](NC(=O)[C@H](NC(=O)c3ccc(NC(=O)CC4C=CCC4)cc3)c3ccccc3)C(=O)N2[C@H]1C(=O)[O-].[Na+] (stereo partly drawn) [Example 8, sodium D(-)-α-(4-[2-cyclopentene-1-acetamido-benzoylamino])-benzylpenicillin] | 8 U/ml | 64 U/ml | 64 U/ml | 32 U/ml | 128 U/ml | 64 U/ml | > 256 U/ml | < 1 U/ml | 8 U/ml | 16 U/ml | 8 U/ml |  | 64 U/ml |
| CC1(C)S[C@@H]2[C@H](NC(=O)[C@H](NC(=O)c3ccc(NC(=O)C4CCC=CCC4)cc3)c3ccccc3)C(=O)N2[C@H]1C(=O)O [Example 14, sodium D(-)-α-[4-(4-cycloheptene-1-carbonylamino-benzoylamino)]-benzylpenicillin] | ~ 8 U/ml | 32 U/ml | 32 U/ml | 32 U/ml | 256 U/ml | 16 U/ml | > 256 U/ml | < 1 U/ml | 32 U/ml | 16 U/ml | 8 U/ml | < 1 U/ml | 32 U/ml |
| CC1(C)S[C@@H]2[C@H](NC(=O)[C@H](NC(=O)c3ccc(NC(=O)Nc4ccccc4)cc3)c3ccccc3)C(=O)N2[C@H]1C(=O)O [Example 45] | 8 U/ml | 16 U/ml | 32 U/ml | 16 U/ml | 128 U/ml | 16 U/ml | > 256 U/ml | < 1 U/ml | 16 U/ml | 4 U/ml | < 1 U/ml | < 1 U/ml | 8 U/ml |
| CC1(C)S[C@@H]2[C@H](NC(=O)[C@H](NC(=O)c3ccc([N+](=O)[O-])cc3)c3ccccc3)C(=O)N2[C@H]1C(=O)O [Example 33, sodium D(-)-α-(4-nitro-benzoylamino)-benzylpenicillin] | ~ 32 U/ml |  | 128 U/ml | 128 U/ml | 256 U/ml | 64 U/ml | > 256 U/ml | < 1 U/ml | 32 U/ml | 32 U/ml | 4 U/ml | ~ 8 U/ml | 64 U/ml |
| CC1(C)S[C@@H]2[C@H](NC(=O)[C@H](NC(=O)c3ccc(NC(=O)c4ccc([N+](=O)[O-])cc4)cc3)c3ccccc3)C(=O)N2[C@H]1C(=O)O [Example 28, sodium D(-)-α-[4-(4-nitrobenzoylamino)-benzoylamino]-benzylpenicillin] | 4 U/ml | 16 U/ml | 16 U/ml | 16 U/ml | 128 U/ml | 16 U/ml | > 256 U/ml | < 1 U/ml | ~ 32 U/ml | 4 U/ml | 4 U/ml | < 1 U/ml | 16 U/ml |
| CC(N=[N+]=[N-])C(=O)Nc1ccc(C(=O)N[C@@H](C(=O)N[C@@H]2C(=O)N3[C@@H]2SC(C)(C)[C@@H]3C(=O)O)c2ccccc2)cc1 (stereo partly drawn) [Example 37] | 8 U/ml | 32 U/ml | 64 U/ml | 32 U/ml | ~ 128 U/ml | 128 U/ml | > 256 U/ml | < 1 U/ml | 64 U/ml | 16 U/ml | 16 U/ml | 4 U/ml | ~ 32 U/ml |
| CC1(C)S[C@@H]2[C@H](NC(=O)[C@H](NC(=O)c3ccc(NC(=O)C4CCC4)cc3)c3ccccc3)C(=O)N2[C@H]1C(=O)O [Example 5, sodium D(-)-α-(4-cyclobutanecarbonylaminobenzoylamino)-benzylpenicillin] | 16 U/ml | 64 U/ml | 128 U/ml | 64 U/ml | 256 U/ml | 32 U/ml | > 256 U/ml | < 1 U/ml | 32 U/ml | 32 U/ml | 16 U/ml | 8 U/ml | 64 U/ml |
| CC1(C)S[C@@H]2[C@H](NC(=O)[C@H](NC(=O)c3ccc(NC(=O)CCN=[N+]=[N-])cc3)c3ccccc3)C(=O)N2[C@H]1C(=O)O [Example 38] | 16 U/ml | 32 U/ml | 128 U/ml | 64 U/ml | ~ 256 U/ml | 32 U/ml | > 256 U/ml | < 1 U/ml | 32 U/ml | 16 U/ml | ~ 16 U/ml | 4 U/ml | 32 U/ml |
| CC1(C)S[C@@H]2[C@H](NC(=O)[C@H](NC(=O)c3cc(NC(=O)C4CCC4)ccc3Cl)c3ccccc3)C(=O)N2[C@H]1C(=O)O [Example 52] | 128-256 U/ml | 128-256 U/ml | 128-256 U/ml | 128-256 U/ml |  | > 256 U/ml |  | < 1 U/ml | 32-64 U/ml | 32-64 U/ml | 32-64 U/ml |  | 128-256 U/ml |
| CC1(C)S[C@@H]2[C@H](NC(=O)[C@H](NC(=O)c3ccc(NC(=O)CN=[N+]=[N-])cc3)c3ccccc3)C(=O)N2[C@H]1C(=O)O [Example 36] | ~ 16 U/ml | ~ 64 U/ml | 128 U/ml | 64 U/ml |  | 128 U/ml | > 256 U/ml | < 1 U/ml | 64 U/ml | 32 U/ml | 8 U/ml | 8 U/ml | 32 U/ml |
